# Results from ChEMBL document CHEMBL5385908, “Screening Ultra-Large Encoded Compound Libraries Leads to Novel Protein-Ligand Interactions and High Selectivity” (J Med Chem, 2024).
# How the values were obtained:
# [1] = molecular target: T1, Protein-arginine deiminase type-4 (Homo sapiens, UniProt Q9UM07); assay: Inhibition of N-terminal GST-tagged PAD4 (unknown origin) expressed in Escherichia coli incubated for 1 hr by spectrophotometric method
# [2] = molecular target: T2, Receptor-type tyrosine-protein kinase FLT3 (Homo sapiens, UniProt P36888); assay: Inhibition of wild type FLT3 (unknown origin)
# T2 sequence (P36888 whole entry): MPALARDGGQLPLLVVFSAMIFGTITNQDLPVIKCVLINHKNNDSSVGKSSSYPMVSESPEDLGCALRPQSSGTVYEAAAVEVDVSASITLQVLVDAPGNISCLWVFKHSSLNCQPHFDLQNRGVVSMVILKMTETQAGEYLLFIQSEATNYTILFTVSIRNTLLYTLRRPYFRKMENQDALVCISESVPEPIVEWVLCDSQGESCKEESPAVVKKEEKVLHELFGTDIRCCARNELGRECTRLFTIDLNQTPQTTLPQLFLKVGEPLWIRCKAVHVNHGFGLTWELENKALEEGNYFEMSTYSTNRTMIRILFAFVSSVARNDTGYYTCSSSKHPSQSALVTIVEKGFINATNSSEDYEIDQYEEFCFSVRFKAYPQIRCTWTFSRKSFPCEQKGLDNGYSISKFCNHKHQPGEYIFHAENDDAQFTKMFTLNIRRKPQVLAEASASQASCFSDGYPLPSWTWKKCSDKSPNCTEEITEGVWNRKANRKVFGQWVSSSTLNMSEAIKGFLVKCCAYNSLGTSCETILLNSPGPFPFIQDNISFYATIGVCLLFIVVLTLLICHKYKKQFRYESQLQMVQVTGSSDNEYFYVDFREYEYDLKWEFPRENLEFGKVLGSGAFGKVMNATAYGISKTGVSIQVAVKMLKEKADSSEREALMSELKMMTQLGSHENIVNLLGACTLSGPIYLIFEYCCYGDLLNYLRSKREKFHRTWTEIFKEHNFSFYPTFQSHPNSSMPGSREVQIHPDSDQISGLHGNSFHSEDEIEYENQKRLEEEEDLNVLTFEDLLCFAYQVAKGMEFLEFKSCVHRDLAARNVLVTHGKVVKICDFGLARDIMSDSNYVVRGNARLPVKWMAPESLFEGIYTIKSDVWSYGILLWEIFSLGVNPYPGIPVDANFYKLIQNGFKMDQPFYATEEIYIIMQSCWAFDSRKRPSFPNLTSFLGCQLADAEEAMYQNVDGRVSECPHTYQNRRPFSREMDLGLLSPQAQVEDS
# [3] = molecular target: T3, Tyrosine-protein kinase receptor UFO (Homo sapiens, UniProt P30530); assay: Inhibition of AXL (unknown origin) by FRET assay
# T3 sequence (P30530 whole entry): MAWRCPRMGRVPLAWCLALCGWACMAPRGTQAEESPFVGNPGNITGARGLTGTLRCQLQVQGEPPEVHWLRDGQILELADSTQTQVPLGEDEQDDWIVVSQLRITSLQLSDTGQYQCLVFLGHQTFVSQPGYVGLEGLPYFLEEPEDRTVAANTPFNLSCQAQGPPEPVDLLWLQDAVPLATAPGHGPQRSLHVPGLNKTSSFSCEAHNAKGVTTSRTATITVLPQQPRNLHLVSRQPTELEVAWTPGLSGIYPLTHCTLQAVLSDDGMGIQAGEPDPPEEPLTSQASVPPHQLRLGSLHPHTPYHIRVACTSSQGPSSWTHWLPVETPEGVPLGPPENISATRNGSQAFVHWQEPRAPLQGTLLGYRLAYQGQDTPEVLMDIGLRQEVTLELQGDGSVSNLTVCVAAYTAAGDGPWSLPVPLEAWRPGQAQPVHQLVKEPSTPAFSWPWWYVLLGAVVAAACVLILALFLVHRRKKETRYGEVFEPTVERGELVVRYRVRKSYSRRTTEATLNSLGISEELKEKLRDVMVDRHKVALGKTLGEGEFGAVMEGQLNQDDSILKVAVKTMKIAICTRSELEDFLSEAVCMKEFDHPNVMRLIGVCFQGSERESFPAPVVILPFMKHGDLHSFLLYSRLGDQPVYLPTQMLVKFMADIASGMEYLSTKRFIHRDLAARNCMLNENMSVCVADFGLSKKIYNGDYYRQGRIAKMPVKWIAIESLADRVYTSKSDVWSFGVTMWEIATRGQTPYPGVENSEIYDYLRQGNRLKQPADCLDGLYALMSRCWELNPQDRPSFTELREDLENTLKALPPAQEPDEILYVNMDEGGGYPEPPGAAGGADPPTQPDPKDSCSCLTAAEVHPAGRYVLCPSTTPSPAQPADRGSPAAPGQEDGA
# [4] = molecular target: T4, Tyrosine-protein kinase Mer (Homo sapiens, UniProt Q12866); assay: Inhibition of N-terminal His6-tagged human MerTk
# T4 sequence (Q12866 whole entry): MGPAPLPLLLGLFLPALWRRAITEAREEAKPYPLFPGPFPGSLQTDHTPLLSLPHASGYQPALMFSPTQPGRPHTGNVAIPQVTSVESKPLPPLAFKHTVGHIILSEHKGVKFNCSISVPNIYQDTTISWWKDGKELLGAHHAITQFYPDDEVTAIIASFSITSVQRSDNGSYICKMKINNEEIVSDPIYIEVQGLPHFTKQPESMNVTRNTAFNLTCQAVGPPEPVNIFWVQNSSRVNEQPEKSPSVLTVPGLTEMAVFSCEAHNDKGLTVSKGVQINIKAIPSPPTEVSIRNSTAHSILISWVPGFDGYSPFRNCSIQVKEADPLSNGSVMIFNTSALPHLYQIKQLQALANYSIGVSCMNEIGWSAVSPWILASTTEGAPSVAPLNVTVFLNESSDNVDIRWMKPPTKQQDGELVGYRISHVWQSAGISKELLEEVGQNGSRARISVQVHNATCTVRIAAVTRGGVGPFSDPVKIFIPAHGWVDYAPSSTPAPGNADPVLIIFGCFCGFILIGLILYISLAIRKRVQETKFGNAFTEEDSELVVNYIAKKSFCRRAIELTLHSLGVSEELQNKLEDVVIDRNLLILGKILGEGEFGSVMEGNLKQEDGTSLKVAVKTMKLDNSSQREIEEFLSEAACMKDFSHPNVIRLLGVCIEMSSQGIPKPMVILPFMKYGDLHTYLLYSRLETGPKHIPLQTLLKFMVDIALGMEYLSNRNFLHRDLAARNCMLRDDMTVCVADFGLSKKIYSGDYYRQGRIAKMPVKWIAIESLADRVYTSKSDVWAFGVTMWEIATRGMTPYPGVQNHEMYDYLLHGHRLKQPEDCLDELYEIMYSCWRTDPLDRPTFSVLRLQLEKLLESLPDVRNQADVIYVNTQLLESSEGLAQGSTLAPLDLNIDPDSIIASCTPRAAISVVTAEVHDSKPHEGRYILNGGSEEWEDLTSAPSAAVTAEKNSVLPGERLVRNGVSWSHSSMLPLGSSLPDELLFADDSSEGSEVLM
# [5] = molecular target: T5, ATPase family AAA domain-containing protein 2 (Homo sapiens, UniProt Q6PL18); assay: Inhibition of N-terminal Hexahistidine-GST-tagged human ATAD2 bromodomain expressed in Escherichia coli BL21 (DE3) Rosetta cells incubated for 1 hr by FRET analysis
# T5 sequence (Q6PL18 whole entry): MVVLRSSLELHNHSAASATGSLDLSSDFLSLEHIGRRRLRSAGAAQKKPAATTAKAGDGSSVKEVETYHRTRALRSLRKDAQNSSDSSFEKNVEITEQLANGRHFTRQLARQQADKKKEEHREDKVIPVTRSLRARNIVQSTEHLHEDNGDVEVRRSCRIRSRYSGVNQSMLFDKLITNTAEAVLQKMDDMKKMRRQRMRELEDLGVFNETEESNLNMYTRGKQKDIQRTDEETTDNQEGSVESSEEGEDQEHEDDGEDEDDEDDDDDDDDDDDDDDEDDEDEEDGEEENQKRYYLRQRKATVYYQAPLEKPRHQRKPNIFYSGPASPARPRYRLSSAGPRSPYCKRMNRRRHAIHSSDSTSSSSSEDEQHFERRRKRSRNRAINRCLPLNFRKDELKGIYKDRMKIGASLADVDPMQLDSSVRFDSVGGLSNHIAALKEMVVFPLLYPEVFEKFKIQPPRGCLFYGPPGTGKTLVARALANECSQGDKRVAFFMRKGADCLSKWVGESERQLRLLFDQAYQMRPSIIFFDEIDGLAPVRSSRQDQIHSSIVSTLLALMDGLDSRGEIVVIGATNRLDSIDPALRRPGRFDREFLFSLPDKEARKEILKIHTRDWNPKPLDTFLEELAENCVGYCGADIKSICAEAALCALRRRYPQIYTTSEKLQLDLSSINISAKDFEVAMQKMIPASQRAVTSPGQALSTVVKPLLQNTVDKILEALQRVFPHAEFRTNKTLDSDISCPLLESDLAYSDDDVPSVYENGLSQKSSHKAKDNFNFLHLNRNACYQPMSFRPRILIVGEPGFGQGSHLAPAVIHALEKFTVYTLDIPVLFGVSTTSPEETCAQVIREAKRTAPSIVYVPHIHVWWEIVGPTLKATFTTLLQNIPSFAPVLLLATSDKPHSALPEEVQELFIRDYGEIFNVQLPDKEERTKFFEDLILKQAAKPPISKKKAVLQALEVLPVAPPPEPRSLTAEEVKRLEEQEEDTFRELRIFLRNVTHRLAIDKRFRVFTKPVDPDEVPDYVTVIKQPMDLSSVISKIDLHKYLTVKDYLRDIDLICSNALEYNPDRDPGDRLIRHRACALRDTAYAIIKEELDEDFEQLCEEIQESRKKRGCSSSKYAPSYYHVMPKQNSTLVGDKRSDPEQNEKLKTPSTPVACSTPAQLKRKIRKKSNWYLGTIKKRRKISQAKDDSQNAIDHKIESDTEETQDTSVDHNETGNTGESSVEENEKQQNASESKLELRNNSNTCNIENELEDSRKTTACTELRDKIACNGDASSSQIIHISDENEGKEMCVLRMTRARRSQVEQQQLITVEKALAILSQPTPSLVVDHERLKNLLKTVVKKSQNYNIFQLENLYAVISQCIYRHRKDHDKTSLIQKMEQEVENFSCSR
# [6] = molecular target: T6, Proteinase-activated receptor 2 (Homo sapiens, UniProt P55085); assay: Antagonist activity at PAR2 (unknown origin)
# T6 sequence (P55085 whole entry): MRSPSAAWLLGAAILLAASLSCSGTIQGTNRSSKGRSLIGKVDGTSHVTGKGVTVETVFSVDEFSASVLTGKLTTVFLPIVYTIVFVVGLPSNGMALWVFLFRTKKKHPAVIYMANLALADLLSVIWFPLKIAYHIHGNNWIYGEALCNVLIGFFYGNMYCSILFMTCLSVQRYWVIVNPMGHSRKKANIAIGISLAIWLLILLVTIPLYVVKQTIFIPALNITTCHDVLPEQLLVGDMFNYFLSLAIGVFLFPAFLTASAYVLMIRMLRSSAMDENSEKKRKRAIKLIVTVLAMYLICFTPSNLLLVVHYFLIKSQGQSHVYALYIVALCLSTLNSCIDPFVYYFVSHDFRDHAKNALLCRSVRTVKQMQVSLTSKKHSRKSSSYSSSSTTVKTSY
# [7] = molecular target: T6, Proteinase-activated receptor 2; assay: Binding affinity to PAR2 (unknown origin) assessed as inhibition constant
# Protein phosphatase 1D = molecular target: T7, Protein phosphatase 1D (Homo sapiens, UniProt O15297); assay: Inhibition of N-terminal FLAG-His8-tagged human Wip1 (2 to 420 residues) expressed in bac-to-bac baculovirus expression system infected Sf9 cells
# T7 sequence (O15297 whole entry): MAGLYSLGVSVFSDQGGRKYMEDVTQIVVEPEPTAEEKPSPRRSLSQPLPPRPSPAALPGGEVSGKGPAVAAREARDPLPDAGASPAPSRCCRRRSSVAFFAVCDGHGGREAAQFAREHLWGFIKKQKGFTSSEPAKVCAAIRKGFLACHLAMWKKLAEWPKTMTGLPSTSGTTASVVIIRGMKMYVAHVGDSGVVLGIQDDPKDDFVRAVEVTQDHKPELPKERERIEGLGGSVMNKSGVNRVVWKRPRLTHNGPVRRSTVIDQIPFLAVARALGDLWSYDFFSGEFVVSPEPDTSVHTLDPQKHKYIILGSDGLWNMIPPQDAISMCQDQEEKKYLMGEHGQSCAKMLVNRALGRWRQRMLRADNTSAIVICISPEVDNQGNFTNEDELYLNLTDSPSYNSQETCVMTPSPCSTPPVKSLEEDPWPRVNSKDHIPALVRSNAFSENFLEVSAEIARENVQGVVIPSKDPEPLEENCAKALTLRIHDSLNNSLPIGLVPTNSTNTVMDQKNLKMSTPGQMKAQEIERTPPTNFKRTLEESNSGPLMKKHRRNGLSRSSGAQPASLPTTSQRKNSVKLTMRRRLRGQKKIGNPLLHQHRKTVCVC
# [8] = molecular target: T1, Protein-arginine deiminase type-4; assay: Inhibition of N-terminal GST-tagged PAD4 (unknown origin) expressed in Escherichia coli BL21 (DE3) measured after 1 hr by colorimetric assay
# T1 sequence (Q9UM07 whole entry): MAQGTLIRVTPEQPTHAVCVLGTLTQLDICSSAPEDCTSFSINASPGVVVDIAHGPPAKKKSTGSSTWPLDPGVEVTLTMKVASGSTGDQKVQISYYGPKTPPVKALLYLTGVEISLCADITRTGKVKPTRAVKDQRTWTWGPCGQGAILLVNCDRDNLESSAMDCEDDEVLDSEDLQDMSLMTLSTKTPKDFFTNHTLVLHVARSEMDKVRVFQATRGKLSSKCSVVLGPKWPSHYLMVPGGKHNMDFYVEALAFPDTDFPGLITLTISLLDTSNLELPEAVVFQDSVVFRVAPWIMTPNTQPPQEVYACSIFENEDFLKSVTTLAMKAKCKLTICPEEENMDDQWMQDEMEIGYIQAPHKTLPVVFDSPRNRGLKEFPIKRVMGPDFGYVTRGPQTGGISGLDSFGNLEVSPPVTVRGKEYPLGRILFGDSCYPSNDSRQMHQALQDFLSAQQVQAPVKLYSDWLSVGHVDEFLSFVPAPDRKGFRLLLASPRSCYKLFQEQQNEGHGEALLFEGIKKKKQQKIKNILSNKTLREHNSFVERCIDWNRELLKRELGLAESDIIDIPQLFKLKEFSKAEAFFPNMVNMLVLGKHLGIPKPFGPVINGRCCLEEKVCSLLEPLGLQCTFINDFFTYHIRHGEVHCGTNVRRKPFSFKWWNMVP
smiles,measurement,setting,value
Cn1c(-c2cc3cc(C(=O)N4CCCC(N)C4)ccc3n2N)cc2ccccc21 (stereo not given),IC50,[1],3200 nM
CN(Cc1ccc2nccn2c1)c1ccc(-c2ccc(-c3ccccc3Cl)cc2)o1,IC50,[2],15800 nM
same,IC50,[3],400 nM
same,IC50,[4],5 nM
COc1cc(Cl)c(C(=O)N[C@@H](CN[C@H]2CC[C@@H](N)CC2)Cc2ccc(C#N)cc2)cc1-c1ccc(CN[C@H](C)c2ccc(C)cc2)o1,IC50,[5],22 nM
C[C@@H](c1ccccc1)n1c(-c2cc3c(cc2Br)OCO3)nc2cc(C(=O)Nc3ccccc3)ccc21,IC50,[6],90 nM
NCCCC[C@H](NC(=O)CNC(=O)Nc1ccc2c(c1)c(CN1CCCC1)cn2Cc1c(Cl)cccc1Cl)C(=O)N[C@@H](Cc1ccccc1)C(=O)NC(c1ccccc1)c1ccccc1,Ki,[7],670 nM
COCCNC(=O)[C@H](CC1CCCCC1)NC(=O)c1ccc(CNc2cccc(Cl)c2)s1,IC50,Protein phosphatase 1D,13 nM
CNC(=O)[C@@H](Cc1ccc([N+](=O)[O-])cc1)NC(=O)c1cc(-c2ccc(CN[C@H](C)c3ccc(C)cc3)o2)ccc1Cl,IC50,[5],22 nM
CNC(=O)C[C@@H](NC(=O)[C@@H](Cc1ccccc1)NC(=O)c1c(C)noc1-c1snnc1C)c1ccc(C(F)(F)F)cc1,IC50,[2],> 100000 nM
same,IC50,[3],16 nM
same,IC50,[4],5 nM
COc1cc(C(=O)N2CCC[C@@H](N)C2)cc2cc(-c3cc4cccnc4n3C)n(N)c12,IC50,[8],200 nM
same,IC50,[1],200 nM
C[C@@H](C1CCCCC1)n1c(-c2cc3c(cc2Br)OCO3)nc2cc(C(=O)Nc3ccc(C#N)cc3)ccc21,IC50,[6],23 nM
